# In patent US8187821B2, “Compositions and methods for the modulation of PGRMC1” (University of Utah Research Foundation, priority 2008, dated 2012):
# pKd: −log10 of the molar value. Read-outs that look alike come from different tables or passages of the source.
# Key:
# [1] = PGRMC1 binding assay control: non-specific [^3H] ligand association with membranes from untransformed bacteria (−PGRMC1); design: species or system E. coli; details: for Q1 / Q2: two binding site model; for Q1: number of non-specific sites; for Q2: number of specific sites
# Experimental: IPTG-induced cells were harvested by centrifugation (5,000 rpm; 5 min) and washed with ice-cold H2O. The pellet was resuspended in 5 mL buffer A (50 mM Tris-HCl pH 7.5, 150 mM NaCl, 0.1% NP40, and 10% glycerol) with 5-10 mg lysozyme, and incubated on ice for 30 min. The cells were then disrupted by three bursts of sonication (45 sec) at high intensity with a 45 sec cooling period between bursts. Soluble material was removed by centrifugation (15,000 rpm, 10 min) and the pellet resuspended in 5 mL buffer A. His10-PGRMC1 (His10 disclosed as SEQ ID NO: 14) was confirmed to be present in purified membranes by SDS-PAGE followed by Coomassie stain and western blot using anti-tetra-His (SEQ ID NO: 15) antibody (Qiagen). Total protein in the His10-PGRMC1 (His10 disclosed as SEQ ID NO: 14) transformed and untransformed purified membranes was determined by the Bradford method and membranes were normalized to 10 μg/μL total protein (diluted with buffer A). Purified membranes were then aliquoted and stored frozen until use.
# (§1) The standard 10 μL binding reaction contained 10 μp purified membranes (total protein) and 10 μM [^3H] progesterone or [^3H] cholesterol (3,000-5,000 cpm) in buffer A: 20% ethanol. Stock solutions (100 μM) of [^3H] cholesterol and [^3H] progesterone containing ˜4×10^4 cpm/μL, were prepared in 95% ethanol. Reactions were prepared in clear 2.0 mL microcentrifuge tubes on ice. To start the reaction, the microfuge tube was briefly mixed (vortex) and placed at 37° C. Following a 10 to 30 min incubation, the tubes were centrifuged in a microfuge (˜13,000 rpm) for 2 min. The supernatant was carefully removed and the pellet was washed with an additional 10 μL water. After a second round of centrifugation (2 min; 13,000 rpm), the resulting supernatant was combined with the first and the pellet was resuspended in 20 μL H2O, Scintillation fluid (700 μL Wallac Optiflour) was added to each fraction and the fractions were mixed extensively. The fractions were then counted in a multi-well scintillation counter (Wallac Microbeta Triluxmax, Waltham, Mass.) for 30 seconds each. Binding are reported as μ/moles of ligand bound per mg of membrane protein. His10-PGRMC1 (His10 disclosed as SEQ ID NO: 14)-specific binding is reported as the difference in binding between transformed and untransformed bacteria. Experimental deviations from the standard assay conditions are noted in individual figure legends.
# In order to better understand PGRMC1's biological function and to study ligand binding, an in vitro binding assay was developed. E. coli BL21 codon plus (RIPL) cells were transformed with a vector encoding PGRMC1 that was epitope tagged with 10 histidine (SEQ ID NO: 14) residues at the NH2-terminus. Untransformed BL21 cells were used as the control. A purification procedure was performed to remove soluble proteins and cell components from the transformed (+PGRMC1) and untransformed (−PGRMC1) bacterial membranes. The resulting purified membranes were confirmed for the presence and absence of His10-PGRMC1 (His10 disclosed as SEQ ID NO: 14) respectively by Coomassie stain and western blot using anti-His antibody. The membranes with [^3H] progesterone or [^3H] cholesterol were then incubated. The membranes were spun out, washed, and counted in a scintillation counter. His10-PGRMC1 (His10 disclosed as SEQ ID NO: 14) specific binding was then determined by subtracting total membrane-associated ligand (nmols/mg protein) in membranes prepared from untransformed bacteria (−PGRMC1) with membranes purified from bacteria expressing His10-PGRMC1 (His10 disclosed as SEQ ID NO: 14) (+PGRMC1).
# To further explore the nature of ligand binding to His10-PGRMC1 (His10 disclosed as SEQ ID NO: 14), several in silico modeling experiments fitting the saturation data to different models of ligand binding were performed. The best statistical fit of the data was to a two binding site model. […]
# His10-PGRMC1 = target: T1, His10-PGRMC1 (Homo sapiens, UniProt O00264); assay: Competition of cold competitors with [^3H] progesterone or [^3H] cholesterol for His10-PGRMC1 binding; details: for effect of cold competitor on binding of [^3H] cholesterol: competitor at ten-fold higher concentration; for effect of cold competitor on specific binding of [^3H] progesterone: excess cold competitor (10 or 100-fold), FIG. 9
# T1 construct: a product containing the full length coding region of PGMRC1 flanked by Nde1 and BamHI restriction sites; made in house; host or cells: E. coli BL21 (DE3) / BL21 codon plus (RIPL); purified bacterial membranes
# Experimental: as §1
# To test whether progesterone and cholesterol compete for the same specific binding site, the direct binding of [^3H] progesterone or [^3H] cholesterol to His10-PGRMC1 (His10 disclosed as SEQ ID NO: 14) in the presence of various cold competitors was examined. In these experiments, the standard amount of [^3H] ligand was combined with a cold competitor at either 10 or 100-fold higher concentration and mixed well to ensure homogeneity. These stock ligand solutions were then used in the standard binding assay as described.
# The ability of other putative ligands reported in the literature to compete with progesterone binding was examined. […] As a control, cold progesterone (P) was used as a competitor and it was observed that excess cold progesterone competes with [^3H] progesterone for His10-PGRMC1 (His10 disclosed as SEQ ID NO: 14) binding. Contrastingly, binding of [^3H] cholesterol to His10-PGRMC1 (His10 disclosed as SEQ ID NO: 14) was unaffected by the presence of progesterone, ergosterol, or heme at ten-fold higher concentrations (FIG. 9, cholesterol). It was not until competitor concentrations were 100-fold higher than ligand that a reduction of cholesterol binding was observed.
# [2] = first category of sites, present in both +PGRMC1 and −PGRMC1 membranes, read-out: Kd of non-specific binding
# [3] = two binding site model fit of saturation data, −PGRMC1 membranes, non-specific site, read-out: Kd1
# T1 sequence (O00264 whole entry): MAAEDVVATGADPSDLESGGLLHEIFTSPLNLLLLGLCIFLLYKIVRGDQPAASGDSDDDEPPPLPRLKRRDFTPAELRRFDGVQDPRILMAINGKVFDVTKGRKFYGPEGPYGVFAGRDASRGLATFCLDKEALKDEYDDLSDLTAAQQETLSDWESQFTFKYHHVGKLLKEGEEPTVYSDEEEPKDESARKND
SMILES,"pKd [1, 2]","pKd [1, 3]",Q1 ([1]; −PGRMC1 membranes),Q2 ([1]; −PGRMC1 membranes),"Membrane-Associated [^3H] Ligand ([1]; −PGRMC1 membranes, Protease −)",competitor excess over ligand at which a reduction of [^3H] cholesterol binding was observed (His10-PGRMC1),effect of cold competitor on binding of [^3H] cholesterol (His10-PGRMC1),effect of cold competitor on specific binding of [^3H] progesterone (His10-PGRMC1),"Membrane-Associated [^3H] Ligand ([1]; −PGRMC1 membranes, Protease + (trypsin before ligand binding))"
"CC(C)CCC[C@@H](C)[C@H]1CC[C@H]2[C@@H]3CC=C4C[C@@H](O)CC[C@]4(C)[C@H]3CC[C@]12C [Cholesterol, cholesterol]",~3.00,3.05,8.4 × 10^9 Sites,0 Sites,3.7 ± 0.3 nmoles/mg protein,100 fold,did not begin to reduce,greatly reduced,
"CC(=O)[C@H]1CC[C@H]2[C@@H]3CCC4=CC(=O)CC[C@]4(C)[C@H]3CC[C@]12C [Progesterone, progesterone]",~3.00,2.77,8.4 × 10^9 Sites,0 Sites,2.4 ± 0.1 nmoles/mg protein,,unaffected,competes,1.6 ± 0.2 nmoles/mg protein
